Calls of active or inactive are those of the source. No cut-off for these calls is given here.
Key:
Mus musculus [1] = assay: Anticonvulsant activity in ip dosed 6-Hz induced seizure mouse model assessed as restoration of normal activity within 10 secs from stimulation at 32 mA; assay type: functional
[2] = molecular target: Beta-1 adrenergic receptor (Homo sapiens) (UniProt P08588); assay: Displacement of [3H]CGP 12177 from human recombinant beta1 adrenergic receptor expressed in HEK293 cells at 100 uM measured after 60 mins by scintillation counting method relative to control; assay type: cell-based
Beta-1 adrenergic receptor (Homo sapiens), sequence (P08588 whole entry, looked up): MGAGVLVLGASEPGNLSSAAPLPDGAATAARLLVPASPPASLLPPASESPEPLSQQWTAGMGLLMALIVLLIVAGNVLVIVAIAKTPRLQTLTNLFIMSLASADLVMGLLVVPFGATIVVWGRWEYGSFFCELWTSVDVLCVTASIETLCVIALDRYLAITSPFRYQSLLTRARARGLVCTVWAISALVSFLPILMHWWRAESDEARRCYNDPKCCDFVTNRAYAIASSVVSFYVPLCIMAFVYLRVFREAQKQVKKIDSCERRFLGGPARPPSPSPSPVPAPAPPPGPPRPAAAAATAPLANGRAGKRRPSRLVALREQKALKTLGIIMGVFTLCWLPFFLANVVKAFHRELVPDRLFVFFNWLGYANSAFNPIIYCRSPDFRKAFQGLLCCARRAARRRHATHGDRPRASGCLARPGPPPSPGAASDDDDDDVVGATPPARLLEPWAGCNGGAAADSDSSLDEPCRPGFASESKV

Rattus norvegicus [3] = assay: Neurotoxicity in ip dosed Sprague-Dawley rat assessed as behavioral change by measuring time to peak effect; assay type: toxicity, organism-based; conditions: in vivo
[4] = molecular target: Prostaglandin E2 receptor EP4 subtype (Homo sapiens) (UniProt P35408); assay: Displacement of [3H]PGE2 from human recombinant EP4 receptor expressed in HEK293 cells at 100 uM measured after 120 mins by scintillation counting method relative to control; assay type: cell-based
Prostaglandin E2 receptor EP4 subtype (Homo sapiens), sequence (P35408 whole entry): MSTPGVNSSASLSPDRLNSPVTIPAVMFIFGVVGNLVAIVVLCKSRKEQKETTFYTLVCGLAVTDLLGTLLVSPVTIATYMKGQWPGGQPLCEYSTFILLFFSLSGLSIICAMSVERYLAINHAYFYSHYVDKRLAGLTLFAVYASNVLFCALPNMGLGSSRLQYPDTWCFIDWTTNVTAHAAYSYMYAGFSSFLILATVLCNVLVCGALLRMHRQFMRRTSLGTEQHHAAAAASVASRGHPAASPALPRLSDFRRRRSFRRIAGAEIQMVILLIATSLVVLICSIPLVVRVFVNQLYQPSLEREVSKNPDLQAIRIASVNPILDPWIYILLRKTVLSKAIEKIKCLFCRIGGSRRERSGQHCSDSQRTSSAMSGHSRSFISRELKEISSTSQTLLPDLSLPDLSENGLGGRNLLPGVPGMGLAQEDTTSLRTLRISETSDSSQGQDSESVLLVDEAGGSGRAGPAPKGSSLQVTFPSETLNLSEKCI

[5] = Protection index, ratio of TD50 for neurotoxicity in po dosed Sprague-Dawley rat model to ED50 for po dosed maximal electroshock induced seizure Sprague-Dawley rat model; assay type: toxicity, organism-based; conditions: in vivo, read-out: Ratio TD50/ED50
Rattus norvegicus [6] = organism: Rattus norvegicus; assay: Displacement of [35S]dATPaS from rat cerebral cortex P2Y receptor at 100 uM measured after 60 mins by scintillation counting method relative to control
Rattus norvegicus [7] = assay: Neurotoxicity in Sprague-Dawley rat assessed as behavioral change at 30 mg/kg, po measured at 1 hr post dose; assay type: toxicity, organism-based; conditions: in vivo
[8] = molecular target: 5-hydroxytryptamine receptor 2B (Homo sapiens) (UniProt P41595); assay: Displacement of [125I]DOI from human recombinant 5HT2B receptor expressed in CHO cells at 100 uM measured after 60 mins by scintillation counting method relative to control; assay type: cell-based
5-hydroxytryptamine receptor 2B (Homo sapiens), sequence (P41595 whole entry): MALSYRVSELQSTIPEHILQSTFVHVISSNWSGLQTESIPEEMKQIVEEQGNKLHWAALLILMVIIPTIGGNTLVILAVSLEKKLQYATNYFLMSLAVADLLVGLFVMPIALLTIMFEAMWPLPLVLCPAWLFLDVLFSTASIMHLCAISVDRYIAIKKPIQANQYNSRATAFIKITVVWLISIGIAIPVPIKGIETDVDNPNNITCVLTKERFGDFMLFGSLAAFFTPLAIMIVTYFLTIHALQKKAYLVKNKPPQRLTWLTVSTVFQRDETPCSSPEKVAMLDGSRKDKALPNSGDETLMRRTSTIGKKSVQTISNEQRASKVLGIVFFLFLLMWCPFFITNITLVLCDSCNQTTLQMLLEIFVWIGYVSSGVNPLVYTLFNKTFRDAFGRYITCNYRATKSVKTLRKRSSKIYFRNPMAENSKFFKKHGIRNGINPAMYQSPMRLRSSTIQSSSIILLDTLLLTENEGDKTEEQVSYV

[9] = molecular target: T1, Muscarinic acetylcholine receptor M5 (Homo sapiens) (UniProt P08912); assay: Displacement of [3H]4-DAMP from human recombinant M5 receptor expressed in CHO cells at 100 uM measured after 60 mins by scintillation counting method relative to control; assay type: cell-based
T1 sequence (whole entry): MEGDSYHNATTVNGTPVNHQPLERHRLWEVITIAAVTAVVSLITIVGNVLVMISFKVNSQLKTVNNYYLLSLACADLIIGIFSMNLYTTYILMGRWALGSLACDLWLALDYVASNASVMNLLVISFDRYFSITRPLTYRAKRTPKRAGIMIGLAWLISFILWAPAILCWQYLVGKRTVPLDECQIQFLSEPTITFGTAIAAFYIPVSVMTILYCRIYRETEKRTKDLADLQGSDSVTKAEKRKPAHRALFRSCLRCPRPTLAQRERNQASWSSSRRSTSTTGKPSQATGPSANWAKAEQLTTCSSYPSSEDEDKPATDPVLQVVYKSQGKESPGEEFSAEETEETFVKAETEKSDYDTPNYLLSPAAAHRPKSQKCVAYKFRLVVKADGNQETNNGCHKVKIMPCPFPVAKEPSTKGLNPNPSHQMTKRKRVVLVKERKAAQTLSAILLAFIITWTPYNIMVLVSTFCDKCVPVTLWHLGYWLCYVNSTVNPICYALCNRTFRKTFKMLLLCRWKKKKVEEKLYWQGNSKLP

[10] = Neurotoxicity in ip dosed mouse; assay type: toxicity, organism-based; conditions: in vivo
[11] = molecular target: Muscarinic acetylcholine receptor M3 (Homo sapiens) (UniProt P20309); assay: Displacement of [3H]4-DAMP from human recombinant M3 receptor expressed in CHO cells at 100 uM measured after 60 mins by scintillation counting method relative to control; assay type: cell-based
Muscarinic acetylcholine receptor M3 (Homo sapiens), sequence (P20309 whole entry, looked up): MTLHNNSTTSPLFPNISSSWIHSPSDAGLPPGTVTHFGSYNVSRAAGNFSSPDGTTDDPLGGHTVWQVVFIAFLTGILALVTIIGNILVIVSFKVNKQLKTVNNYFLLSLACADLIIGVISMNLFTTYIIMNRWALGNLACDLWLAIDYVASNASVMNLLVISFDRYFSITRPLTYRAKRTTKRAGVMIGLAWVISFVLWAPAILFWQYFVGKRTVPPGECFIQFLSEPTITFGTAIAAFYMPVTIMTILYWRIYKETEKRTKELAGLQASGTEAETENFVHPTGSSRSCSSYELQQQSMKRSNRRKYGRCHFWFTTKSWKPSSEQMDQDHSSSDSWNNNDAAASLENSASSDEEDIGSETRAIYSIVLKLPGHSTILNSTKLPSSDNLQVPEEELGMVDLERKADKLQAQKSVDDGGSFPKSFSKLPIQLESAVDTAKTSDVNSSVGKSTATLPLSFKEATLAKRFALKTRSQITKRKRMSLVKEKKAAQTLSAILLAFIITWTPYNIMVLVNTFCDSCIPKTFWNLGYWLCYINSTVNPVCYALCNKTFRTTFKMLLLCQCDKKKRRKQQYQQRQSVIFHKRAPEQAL

Mus musculus [12] = assay: Anticonvulsant activity in 6-Hz induced seizure mouse model assessed as restoration of normal activity within 10 secs from stimulation at 100 mg/kg, ip at 32 mA measured at […] post dose; assay type: functional, organism-based
Mus musculus [13] = assay: Anticonvulsant activity in ip dosed 6-Hz induced seizure mouse model assessed as restoration of normal activity within 10 secs from stimulation at 44 mA; assay type: functional
[14] = molecular target: Sodium-dependent dopamine transporter (Homo sapiens) (UniProt Q01959); assay: Displacement of [3H]BTCP from human recombinant dopamine transporter expressed in CHO cells at 100 uM measured after 120 mins by scintillation counting method relative to control; assay type: cell-based
Sodium-dependent dopamine transporter (Homo sapiens), sequence (Q01959 whole entry): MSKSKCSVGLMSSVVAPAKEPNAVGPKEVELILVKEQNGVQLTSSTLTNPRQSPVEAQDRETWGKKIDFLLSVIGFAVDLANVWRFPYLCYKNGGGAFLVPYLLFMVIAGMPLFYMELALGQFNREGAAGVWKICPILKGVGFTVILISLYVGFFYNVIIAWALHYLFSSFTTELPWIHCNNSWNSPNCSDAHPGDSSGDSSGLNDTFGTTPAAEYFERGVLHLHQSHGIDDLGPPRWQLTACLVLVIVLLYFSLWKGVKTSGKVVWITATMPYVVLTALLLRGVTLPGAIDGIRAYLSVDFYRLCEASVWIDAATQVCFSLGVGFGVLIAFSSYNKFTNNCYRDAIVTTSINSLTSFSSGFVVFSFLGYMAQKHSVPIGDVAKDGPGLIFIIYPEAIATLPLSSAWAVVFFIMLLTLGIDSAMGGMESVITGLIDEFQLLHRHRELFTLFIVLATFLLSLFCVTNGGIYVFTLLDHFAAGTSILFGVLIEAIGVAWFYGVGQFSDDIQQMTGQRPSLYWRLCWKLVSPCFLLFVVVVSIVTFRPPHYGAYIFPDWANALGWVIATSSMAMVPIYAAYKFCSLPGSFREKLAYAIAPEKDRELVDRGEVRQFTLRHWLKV

[15] = molecular target: 5-hydroxytryptamine receptor 5A (Homo sapiens) (UniProt P47898); assay: Displacement of [3H]LSD from human recombinant 5HT5A receptor expressed in HEK293 cells at 100 uM measured after 120 mins by scintillation counting method relative to control; assay type: cell-based
5-hydroxytryptamine receptor 5A (Homo sapiens), sequence (P47898 whole entry): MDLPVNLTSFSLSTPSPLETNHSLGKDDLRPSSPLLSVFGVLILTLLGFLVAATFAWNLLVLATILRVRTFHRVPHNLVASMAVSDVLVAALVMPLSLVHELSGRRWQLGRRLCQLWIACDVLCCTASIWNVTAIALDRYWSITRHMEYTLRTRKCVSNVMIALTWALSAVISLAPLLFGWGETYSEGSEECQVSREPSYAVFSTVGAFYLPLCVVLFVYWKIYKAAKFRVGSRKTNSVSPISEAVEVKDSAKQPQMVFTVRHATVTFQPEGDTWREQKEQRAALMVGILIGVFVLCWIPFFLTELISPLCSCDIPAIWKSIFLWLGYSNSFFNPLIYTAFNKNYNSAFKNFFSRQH

[16] = molecular target: Kappa-type opioid receptor (Rattus norvegicus) (UniProt P34975); assay: Displacement of [3H]U 69593 from rat recombinant kappa-opioid receptor expressed in CHO cells at 100 uM measured after 60 mins by scintillation counting method relative to control; assay type: cell-based
Kappa-type opioid receptor (Rattus norvegicus), sequence (P34975 whole entry): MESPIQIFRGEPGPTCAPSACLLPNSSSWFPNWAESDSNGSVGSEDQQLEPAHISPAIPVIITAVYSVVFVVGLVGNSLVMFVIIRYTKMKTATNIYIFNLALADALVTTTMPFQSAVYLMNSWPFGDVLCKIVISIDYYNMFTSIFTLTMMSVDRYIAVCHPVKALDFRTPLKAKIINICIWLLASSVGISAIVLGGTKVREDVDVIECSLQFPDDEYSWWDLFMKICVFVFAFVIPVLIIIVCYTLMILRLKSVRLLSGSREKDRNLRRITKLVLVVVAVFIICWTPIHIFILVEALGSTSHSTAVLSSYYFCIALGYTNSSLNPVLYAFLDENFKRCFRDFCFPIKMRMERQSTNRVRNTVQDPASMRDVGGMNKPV

[17] = molecular target: Melatonin receptor type 1A (Homo sapiens) (UniProt P48039); assay: Displacement of [125I]2-iodomelatonin from human recombinant MT1 receptor expressed in CHO cells at 100 uM measured after 60 mins by scintillation counting method relative to control; assay type: cell-based
Melatonin receptor type 1A (Homo sapiens), sequence (P48039 whole entry): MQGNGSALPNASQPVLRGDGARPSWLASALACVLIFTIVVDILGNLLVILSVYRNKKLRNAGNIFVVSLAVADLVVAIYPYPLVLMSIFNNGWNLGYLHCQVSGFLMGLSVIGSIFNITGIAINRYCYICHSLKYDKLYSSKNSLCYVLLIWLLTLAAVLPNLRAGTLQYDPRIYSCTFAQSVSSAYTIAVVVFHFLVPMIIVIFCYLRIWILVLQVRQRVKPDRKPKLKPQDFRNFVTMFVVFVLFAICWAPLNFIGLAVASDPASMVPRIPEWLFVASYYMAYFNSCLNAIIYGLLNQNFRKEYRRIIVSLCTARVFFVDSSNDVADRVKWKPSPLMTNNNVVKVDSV

Rattus norvegicus [18] = organism: Rattus norvegicus; assay: Displacement of [3H]TCP from rat cerebral cortex phencyclidine receptor at 100 uM measured after 120 mins by scintillation counting method relative to control
Rattus norvegicus [19] = organism: Rattus norvegicus; assay: Displacement of [125I]apamin from rat cerebral cortex SKCa channel at 100 uM measured after 60 mins by scintillation counting method relative to control
[20] = molecular target: Cannabinoid receptor 1 (Homo sapiens) (UniProt P21554); assay: Displacement of [3H]CP 55940 from human recombinant CB1 receptor expressed in CHO cells at 100 uM measured after 120 mins by scintillation counting method relative to control; assay type: cell-based
Cannabinoid receptor 1 (Homo sapiens), sequence (P21554 whole entry): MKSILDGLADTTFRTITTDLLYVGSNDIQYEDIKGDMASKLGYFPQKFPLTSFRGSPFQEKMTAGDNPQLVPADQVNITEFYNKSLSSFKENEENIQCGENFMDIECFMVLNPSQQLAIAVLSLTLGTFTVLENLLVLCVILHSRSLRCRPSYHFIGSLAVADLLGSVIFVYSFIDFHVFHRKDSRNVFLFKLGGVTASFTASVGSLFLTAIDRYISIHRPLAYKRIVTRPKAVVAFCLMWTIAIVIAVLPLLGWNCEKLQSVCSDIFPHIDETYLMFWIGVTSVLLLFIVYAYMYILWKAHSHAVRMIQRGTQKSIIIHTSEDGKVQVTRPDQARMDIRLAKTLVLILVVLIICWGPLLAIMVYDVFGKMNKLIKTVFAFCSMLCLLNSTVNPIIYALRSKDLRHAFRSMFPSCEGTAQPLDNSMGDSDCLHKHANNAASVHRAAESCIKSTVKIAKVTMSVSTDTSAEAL

Mus musculus [21] = assay: Anticonvulsant activity in maximal electroshock induced seizure mouse model assessed as suppression in hindlimb tonic extension at 300 mg/kg, ip measured at 0.5 hrs post dose; assay type: functional, organism-based
Rattus norvegicus [22] = assay: Anticonvulsant activity in ip dosed pentylenetetrazole induced seizure Sprague-Dawley rat model assessed as no observable episode of clonic convulsion of at least 5 secs by measuring time to peak effect; assay type: functional
Rattus norvegicus [23] = organism: Rattus norvegicus; assay: Displacement of [3H]GABA from rat cerebral cortex GABA receptor at 100 uM
[24] = Protection index, ratio of TD50 for neurotoxicity in ip dosed mouse to ED50 for ip dosed maximal electroshock induced seizure mouse model; assay type: toxicity, organism-based; conditions: in vivo, read-out: Ratio TD50/ED50
[25] = molecular target: D(1B) dopamine receptor (Homo sapiens) (UniProt P21918); assay: Displacement of [3H]SCH 23390 from human recombinant D5 receptor expressed in GH4 cells at 100 uM measured after 60 mins by scintillation counting method relative to control; assay type: cell-based
D(1B) dopamine receptor (Homo sapiens), sequence (P21918 whole entry): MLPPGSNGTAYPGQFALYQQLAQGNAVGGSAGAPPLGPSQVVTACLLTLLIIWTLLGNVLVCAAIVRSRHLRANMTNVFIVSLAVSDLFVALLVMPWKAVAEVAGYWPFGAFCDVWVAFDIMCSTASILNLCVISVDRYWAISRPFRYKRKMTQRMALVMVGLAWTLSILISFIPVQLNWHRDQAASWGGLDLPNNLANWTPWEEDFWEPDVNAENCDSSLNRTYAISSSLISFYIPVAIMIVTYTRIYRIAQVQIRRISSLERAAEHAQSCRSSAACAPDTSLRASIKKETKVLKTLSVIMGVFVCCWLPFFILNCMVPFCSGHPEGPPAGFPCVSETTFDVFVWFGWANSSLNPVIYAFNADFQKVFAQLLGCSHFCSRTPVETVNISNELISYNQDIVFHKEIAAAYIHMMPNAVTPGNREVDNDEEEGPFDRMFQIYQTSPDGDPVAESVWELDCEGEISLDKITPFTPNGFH

SMILES: Cc1ccccc1/C=C/C(=O)N[C@@H](C)CO
- ED50 (Mus musculus [1]): 52.6 mg/kg
- inhibition [2]: -2.8%
- Time (Rattus norvegicus [3]): 0.5 h
- inhibition [4]: 16.7%
- selectivity ratio [5]: > 19.4
- inhibition (Rattus norvegicus [6]): -6.1%
- Activity (Rattus norvegicus [7]): Non-Toxic
- inhibition [8]: 79.8%
- inhibition [9]: -7.5%
- TD50 [10]: 150 mg/kg
- inhibition [11]: -2%
- Activity (Mus musculus [12]): Active
- ED50 (Mus musculus [13]): 42.3 mg/kg
- inhibition [14]: 14.8%
- inhibition [15]: 17.4%
- inhibition [16]: 14.8%
- inhibition [17]: 14.5%
- inhibition (Rattus norvegicus [18]): 7.8%
- inhibition (Rattus norvegicus [19]): -5.8%
- inhibition [20]: 9.1%
- Activity (Mus musculus [21]): Active
- Time (Rattus norvegicus [22]): 0.25 h
- inhibition (Rattus norvegicus [23]): 13.2%
- selectivity ratio [24]: 3.53
- inhibition [25]: 8%

SMILES: CCC(CO)NC(=O)/C=C/c1ccc(Cl)cc1 (stereo not given)
- ED50 (Mus musculus [1]): 57.6 mg/kg
- inhibition [2]: -2.9%
- Time (Rattus norvegicus [3]): 1 h
- inhibition [4]: 29.7%
- selectivity ratio [5]: 5.92
- inhibition (Rattus norvegicus [6]): 18.1%
- Activity (Rattus norvegicus [7]): Non-Toxic
- inhibition [8]: 58.2%
- inhibition [9]: -9.2%
- TD50 [10]: 196 mg/kg
- inhibition [11]: 1.5%
- Activity (Mus musculus [12]): Active
- ED50 (Mus musculus [13]): 92.9 mg/kg
- inhibition [14]: 29.5%
- inhibition [15]: 18.7%
- inhibition [16]: 41.9%
- inhibition [17]: 4.3%
- inhibition (Rattus norvegicus [18]): -2.2%
- inhibition (Rattus norvegicus [19]): 2.3%
- inhibition [20]: 11.5%
- Activity (Mus musculus [21]): Active
- Time (Rattus norvegicus [22]): 0.5 h
- inhibition (Rattus norvegicus [23]): 8.7%
- selectivity ratio [24]: 3.65
- inhibition [25]: 12.3%

SMILES: CC(O)CNC(=O)/C=C/c1ccc(Cl)cc1 (stereo not given)
- ED50 (Mus musculus [1]): 42.3 mg/kg
- inhibition [2]: 0.7%
- Time (Rattus norvegicus [3]): 0.5 h
- inhibition [4]: 23.6%
- selectivity ratio [5]: 6.47
- inhibition (Rattus norvegicus [6]): 15%
- Activity (Rattus norvegicus [7]): Non-Toxic
- inhibition [8]: 41.6%
- inhibition [9]: -5.9%
- TD50 [10]: 180 mg/kg
- inhibition [11]: 2.9%
- Activity (Mus musculus [12]): Active
- ED50 (Mus musculus [13]): 51.3 mg/kg
- inhibition [14]: 16%
- inhibition [15]: 19%
- inhibition [16]: 31.6%
- inhibition [17]: 10.6%
- inhibition (Rattus norvegicus [18]): -5.5%
- inhibition (Rattus norvegicus [19]): -2.5%
- inhibition [20]: 4.7%
- Activity (Mus musculus [21]): Active
- Time (Rattus norvegicus [22]): 0.5 h
- inhibition (Rattus norvegicus [23]): -1.3%
- selectivity ratio [24]: 3.24
- inhibition [25]: 13%
